Laboratory results published in US5710123A, “Peptide inhibitors of selectin binding” (Centocor, Inc., priority 1995, dated 1998).
Where a SMILES comes first, the peptide text is derived from it. Bridges are numbered along the chain shown (N, C = ends). Where no end group is shown, it is not given here.

Biological target: T1, P-selectin (Homo sapiens, UniProt P16109)
T1 construct: from tissue; host or cells: outdated human platelet packs from a blood bank
T1 sequence (P16109 42-830): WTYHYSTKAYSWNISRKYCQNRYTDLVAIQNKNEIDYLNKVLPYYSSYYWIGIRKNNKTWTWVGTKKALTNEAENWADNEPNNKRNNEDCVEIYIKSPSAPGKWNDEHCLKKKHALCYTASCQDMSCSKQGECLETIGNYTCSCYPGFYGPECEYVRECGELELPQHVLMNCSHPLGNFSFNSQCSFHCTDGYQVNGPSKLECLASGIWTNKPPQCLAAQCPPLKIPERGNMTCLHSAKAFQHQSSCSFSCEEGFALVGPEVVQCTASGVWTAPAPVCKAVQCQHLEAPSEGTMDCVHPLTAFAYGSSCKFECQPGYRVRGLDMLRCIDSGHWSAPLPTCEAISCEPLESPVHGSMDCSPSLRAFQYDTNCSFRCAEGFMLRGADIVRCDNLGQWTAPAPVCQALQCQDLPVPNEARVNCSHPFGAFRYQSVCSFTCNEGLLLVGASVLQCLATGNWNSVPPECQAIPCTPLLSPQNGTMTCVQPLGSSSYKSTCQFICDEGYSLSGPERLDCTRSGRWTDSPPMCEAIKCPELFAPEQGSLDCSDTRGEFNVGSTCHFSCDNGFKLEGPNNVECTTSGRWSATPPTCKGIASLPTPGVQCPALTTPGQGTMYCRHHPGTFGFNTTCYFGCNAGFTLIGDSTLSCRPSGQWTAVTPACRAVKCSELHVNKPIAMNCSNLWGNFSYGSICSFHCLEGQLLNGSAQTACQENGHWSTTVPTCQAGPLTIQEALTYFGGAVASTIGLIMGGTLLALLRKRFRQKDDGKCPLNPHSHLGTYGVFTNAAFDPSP
Assay: Inhibition of binding of human neutrophils to P-selectin (neutrophil adhesion to purified immobilized P-selectin, myeloperoxidase readout)
Format: cell-based
Details: P-selectin purified from human platelets, plated at 5 micrograms/mL, peptides tested 1.0 mM to 0.001 mM
Excerpt: Peptides can be screened for their ability to inhibit adhesion to cells, for example, neutrophil adhesion to purified P-selectin immobilized on plastic wells, using the assay described by Geng, et al., Nature 343, 757-760 1990). Human neutrophils are isolated from heparinized […] blood by density gradient centrifugation on Mono-Poly resolving media, Flow Laboratories. Neutrophil suspensions are greater than 98% pure and greater than 95% viable by trypan blue exclusion. For adhesion assays, neutrophils are suspended at a concentration of 2×10^6 cells/mL in Hanks' balanced salt solution containing 1.26 mM Ca^2+ and 0.81 mM Mg^2+ (HBSS, Gibco) with […] human serum albumin (HBSS/HSA). Adhesion assays are conducted in triplicate in 96-well microtiter plates, Corning, incubated at 4° C. overnight with 50 microliters of various protein solutions. P-selectin is isolated from human platelet lysates by immunoaffinity chromatography on antibody S12-Sepharose™ and ion-exchange chromatography on a Mono-Q™ column (FLPC, Pharmacia Fine Chemicals), as follows. Outdated human platelet packs (100 units) obtained from a blood bank and stored at 4° C. are pooled, adjusted to 5 mM EDTA at pH 7.5, centrifuged at 4,000 rpm for 30 minutes in 1 liter bottles, then washed three times with 1 liter of 0.1M NaCl, 20 mM Tris pH 7.5 (TBS), 5 mM EDTA, 5 mM benzamidine. The pellets are then resuspended in a minimum amount of wash buffer and made 1 mM in DIFP, then frozen in 50 mL screwtop tubes at -80° C. The frozen platelets are thawed and resuspended in 50 mL TBS, 5 mM benzamidine, 5 mM EDTA pH 7.5, […]. The suspension is frozen and thawed two times in a dry ice-acetone bath using a 600 mL lyophilizing flask, then homogenized in a glass/teflon mortar and pestle and made 1 mM in DIFP. The NaCl concentration is adjusted to 0.5M with a stock solution of 4M NaCl. After stirring the suspension at 4° C., it is centrifuged in polycarbonate tubes at 33,000 rpm for 60 minutes at 4° C. The supernatant (0.5M NaCl wash) is removed and saved; this supernatant contains the soluble form of P-selectin. Care is taken not to remove the top part of the pellet with the supernatant. The pellets are then homogenized in extraction buffer (TBS, 5 mM benzamidine, 5 mM EDTA, pH 7.5, 100 μM leupeptin, 2% Triton X-100). After centrifugation at 19,500 rpm for 25 minutes at 4° C., the supernatant is removed. The extraction procedure is repeated with the pellet and the supernatant is combined with the first supernatant. The combined extracts, which contain the membrane form of P-selectin, are adjusted to 0.5M NaCl. The soluble fraction (0.5M NaCl wash) and the membrane extract (also adjusted to 0.5M NaCl) are absorbed with separate pools of the monoclonal antibody S12 (directed to P-selectin) previously coupled to Affigel (Biorad) at 5 mg/mL for 2 hours at 4° C. After letting the resins settle, the supernatants are removed. The S12 Affigel containing bound GMP-140 is then loaded into a column and washed overnight at 4° C. with 400 mL of 0.5M NaCl, 20 mM Tris pH 7.5, 0.01% Lubrol PX. Bound P-selectin is eluted from the S12 Affigel with 100 mL of 80% ethylene glycol, 1 mM MES pH 6.0, 0.01% Lubrol PX. Peak fractions with absorbance at 280 nm are pooled. Eluates are dialyzed against TBS with 0.05% Lubrol, then applied to a Mono Q column (FPLC from Pharmacia). The concentrated protein is step eluted with 2M NaCl, 20 mM Tris pH 7.5 (plus 0.05% Lubrol PX for the membrane fraction). Peak fractions are dialyzed into TBS pH 7.5 (plus 0.05% Lubrol PX for the membrane fraction). P-selectin is plated at 5 micrograms/mL and the control proteins: human serum albumin (Alb), platelet glycoprotein IIb/IIIa (IIb), von Willsbrand factor (vWF), fibrinogen (FIB), thrombomodulin (TM), gelatin (GEL) or human serum (HS), are added at 50 micrograms/mL. […]

Compound	IC50 [µM]
CC(C)C[C@H](NC(=O)[C@H](C)NC(=O)[C@H](Cc1c[nH]cn1)NC(=O)[C@H](CCCCN)NC(=O)[C@H](CCCCN)NC(=O)[C@H](CCCCN)NC(=O)[C@H](CC(C)C)NC(=O)[C@@H](N)CS)C(=O)N[C@@H](CS)C(=O)N[C@@H](Cc1ccc(O)cc1)C(N)=O [SEQ ID NO: 1, Cystinyl-leucyl-lysyl-lysyl-lysyl-histidyl-alanyl-leucyl-cystinyl-tyrosine- amide] (H-CLKKKHALCY-NH2)	269
CC(C)C[C@H](NC(=O)[C@H](C)NC(=O)[C@H](CC(C)C)NC(=O)[C@H](CCCCN)NC(=O)[C@H](CCCCN)NC(=O)[C@H](CCCCN)NC(=O)[C@H](CO)NC(=O)[C@@H](N)CS)C(=O)N[C@@H](CS)C(=O)N[C@@H](Cc1ccc(O)cc1)C(N)=O [SEQ ID NO: 2, Cystinyl-serinyl-lysyl-lysyl-lysyl-leucyl-alanyl-leucyl-cystinyl-tyrosine-amide] (H-CSKKKLALCY-NH2)	48
CC(C)C[C@H](NC(=O)[C@H](C)NC(=O)[C@H](C)NC(=O)[C@H](CCCCN)NC(=O)[C@H](CC(C)C)NC(=O)[C@H](CCCCN)NC(=O)[C@H](Cc1c[nH]cn1)NC(=O)[C@@H](N)CS)C(=O)N[C@@H](CS)C(=O)N[C@@H](Cc1ccc(O)cc1)C(N)=O [SEQ ID NO: 3, Cystinyl-histidyl-lysyl-leucyl-lysyl-alanyl-alanyl-leucyl-cystinyl-tyrosine-amide] (H-CHKLKAALCY-NH2)	282
CC(C)C[C@@H]1NC(=O)[C@H](C)NC(=O)[C@H](Cc2c[nH]cn2)NC(=O)[C@H](CCCCN)NC(=O)[C@H](CCCCN)NC(=O)[C@H](CCCCN)NC(=O)[C@H](CC(C)C)NC(=O)[C@@H](N)CSSC[C@@H](C(=O)N[C@@H](Cc2ccc(O)cc2)C(N)=O)NC1=O [SEQ ID NO: 4, Cyclo-(cystinyl-leucyl-lysyl-lysyl-lysyl-histidyl-alanyl-leucyl-cystinyl)-tyrosine-amide] (H-CLKKKHALCY-NH2; disulfide 1-9)	626
CC(C)C[C@@H]1NC(=O)[C@H](C)NC(=O)[C@H](CC(C)C)NC(=O)[C@H](CCCCN)NC(=O)[C@H](CCCCN)NC(=O)[C@H](CCCCN)NC(=O)[C@H](CO)NC(=O)[C@@H](N)CSSC[C@@H](C(=O)N[C@@H](Cc2ccc(O)cc2)C(N)=O)NC1=O [SEQ ID NO: 5] (H-CSKKKLALCY-NH2; disulfide 1-9)	78
CC(C)C[C@@H]1NC(=O)[C@H](C)NC(=O)[C@H](C)NC(=O)[C@H](CCCCN)NC(=O)[C@H](CC(C)C)NC(=O)[C@H](CCCCN)NC(=O)[C@H](Cc2c[nH]cn2)NC(=O)[C@@H](N)CSSC[C@@H](C(=O)N[C@@H](Cc2ccc(O)cc2)C(N)=O)NC1=O [SEQ ID NO: 6, Cyclo-(cystinyl-histidyl-lysyl-leucyl-lysyl-alanyl-alanyl-leucyl-cystinyl)- tyrosine-amide] (H-CHKLKAALCY-NH2; disulfide 1-9)	2
Ac-FKKKLALCY-NH2 [SEQ ID NO: 7, Ac-FKKKLALCY--NH2]	74
Ac-HKKKLALCY-NH2 [SEQ ID NO: 9, Ac-HKKKLALCY--NH2]	11
Ac-LKKKLALCY-NH2 [SEQ ID NO: 12, Ac-LKKKLALCY--NH2]	26
Ac-NKKKLALCY-NH2 [SEQ ID NO: 14, Ac-NKKKLALCY--NH2]	53
Ac-SKAKLALCY-NH2 [SEQ ID NO: 19, Ac-SKAKLALCY--NH2]	60
Ac-SKKKAALCY-NH2 [SEQ ID NO: 23, Ac-SKKKAALCY--NH2]	192
Ac-SKKKLALCY-NH2 [SEQ ID NO: 49, Ac-SKKKLALCY--NH2]	9
Ac-SKKKLALIY-NH2 [SEQ ID NO: 34, Ac-SKKKLALIY--NH2]	128
Ac-SKKKLALLY-NH2 [SEQ ID NO: 37, Ac-SKKKLALLY--NH2]	88
Ac-SKKKLALVY-NH2 [SEQ ID NO: 39, Ac-SKKKLALVY--NH2]	164
Ac-SKKKTALCY-NH2 [SEQ ID NO: 47, Ac-SKKKTALCY--NH2]	82
Ac-SKLKLALCY-NH2 [SEQ ID NO: 51, Ac-SKLKLALCY--NH2]	12
Ac-SKRKLALCY-NH2 [SEQ ID NO: 53, Ac-SKRKLALCY--NH2]	12
Ac-SKRKRALCY-NH2 [SEQ ID NO: 55, Ac-SKRKRALCY--NH2]	26
Ac-SKRRLALCY-NH2 [SEQ ID NO: 57, Ac-SKRRLALCY--NH2]	8

Compound	IC50 [µM]
Ac-SRARLALCY-NH2 [SEQ ID NO: 61, Ac-SRARLALCY--NH2]	47
Ac-SRKKLALCY-NH2 [SEQ ID NO: 63, Ac-SRKKLALCY--NH2]	17
Ac-SRKRLALCY-NH2 [SEQ ID NO: 65, Ac-SRKRLALCY--NH2]	18
Ac-SRRKLALCY-NH2 [SEQ ID NO: 68, Ac-SRRKLALCY--NH2]	27
FKKKLALCY-NH2 [SEQ ID NO: 8, FKKKLALCY--NH2]	20
HKKKLALCY-NH2 [SEQ ID NO: 10, HKKKLALCY--NH2]	55
LKKKHALCY-NH2 [SEQ ID NO: 11, LKKKHALCY--NH2]	178
LKKKLALCY-NH2 [SEQ ID NO: 13, LKKKLALCY--NH2]	65
NKKKLALCY-NH2 [SEQ ID NO: 15, NKKKLALCY--NH2]	19
PKKKLALCY-NH2 [SEQ ID NO: 16, PKKKLALCY--NH2]	103
QKKKLALCY-NH2 [SEQ ID NO: 17, QKKKLALCY--NH2]	1010
SHKKLALCY-NH2 [SEQ ID NO: 18, SHKKLALCY--NH2]	362
SKFKLALCY-NH2 [SEQ ID NO: 20, SKFKLALCY--NH2]	37
SKHKLALCY-NH2 [SEQ ID NO: 21, SKHKLALCY--NH2]	888
SKKFLALCY-NH2 [SEQ ID NO: 22, SKKFLALCY--NH2]	554
SKKKAALCY-NH2 [SEQ ID NO: 24, SKKKAALCY--NH2]	232
SKKKHALCY-NH2 [SEQ ID NO: 25, SKKKHALCY--NH2]	656
SKKKIALCY-NH2 [SEQ ID NO: 26, SKKKIALCY--NH2]	62
SKKKLAFCY-NH2 [SEQ ID NO: 27, SKKKLAFCY--NH2]	86
SKKKLAICY-NH2 [SEQ ID NO: 28, SKKKLAICY--NH2]	107
